Tests used:
[1] = Observational pharmacogenetic study: treatment suspension due to adverse effects in smokers treated with varenicline; type: in vivo, human
Protocol: (§1) In a study conducted on 807 patients from the Tobacco Addiction Units of 22 hospitals and health centers in Spain and Portugal, more than 300 SNPs relating to the relevant pathways with respect to the efficacy of the 3 first-line pharmacological tobacco cessation treatments were assessed: nicotine replacement therapy (NRT), bupropion and varenicline. The safety was assessed after three months of abstinence from tobacco consumption in relation to the presence of adverse effects which determined the reduction or withdrawal of the initially applied treatment.
(§2) The analysis process was carried out after applying the usual checks for correcting data entry errors. The status of the subjects was first characterized either as “cases” or as “controls”, depending on the safety results obtained after 3 months of follow-up after the establishment of the chosen tobacco cessation treatment. Those individuals in whom (a) it was necessary to reduce the dose of the chosen treatment due to the presence of treatment-related adverse effects, or (b) it was necessary to suspend or change the treatment due to intolerance to same according to the assessment of his/her doctor, were considered as “cases”. The different statistical analysis models thus provided information about the safety associated with the presence of a certain genetic pattern.
(§3) To assess the possibility of confounding biases as a result of the mixed population analysis, and also as a control for genotyping errors, the Hardy-Weinberg disequilibrium test was performed both in the “cases” and in the corresponding “controls”. The result of this test was assessed before analyzing the results obtained in the various logistic regression models which were used to assess the association between the specific SNPs and the safety results of the prescribed treatments. The following penetrance models were used in the logistic regression models: dominant, recessive, additive, over-dominant and log-additive. The statistical analyses were performed both with the allelic frequency and with the genotypic frequency, the latter being those which provide the most information about the associations to be replicated. All the results were presented as odds-ratios (OR) with the corresponding 95% confidence intervals and statistical significance value thereof.
(§4) Finally, the discriminating power of the different genetic indicators (SNPs) analyzed with respect to the safety results was assessed by means of […] and area under the curve analysis. The final purpose of this analysis strategy was to enable estimating the probability of adverse effects that a subject with a certain genotypic profile who starts a tobacco cessation treatment (particularly with varenicline) may have and adjusting and monitoring his/her treatment based on this information.
(§5) For the purpose of determining the pharmacogenetic profile associated with the safety of a pharmacological smoking cessation treatment, the results obtained in terms of abstinence from tobacco consumption after 3 months were evaluated in relation to the presence of adverse effects which determined the reduction or withdrawal of the initially applied treatment. The subjects were divided into three groups which were treated with NRT, bupropion or varenicline.
(§6) It is an observational study with the intervention of 21 Tobacco Addiction Units from the public health services in Spain and Portugal. A total of 807 subjects were invited to participate in the study, 798 of whom provided their sociodemographic and clinical data taking a test with 144 items. They also provided a biological sample for subsequent genotyping. 483 individuals were treated with varenicline. The information of both the phenotypic and genotypic variables was collected for 479 patients treated with varenicline before establishing the pharmacological treatment.
(§7) The clinical results were linked to the safety of the pharmacological treatments. […]

[2] = oral; cited from earlier work
[3] = Observational pharmacogenetic study: dose reduction due to adverse effects in smokers treated with varenicline; type: in vivo, human; details: for Linear OR, dose reduction due to adverse effects: linear model
Protocol: as §1, §2, §3, §4, §5, §6, §7

[4] = 1 mg twice a day, 3-month treatment studies; cited from earlier work
[5] = molecular target: α4β2 neuronal nicotinic acetylcholine receptor subtype (Homo sapiens, UniProt P17787+P43681); details: selective partial agonist; cited from earlier work
Sequence of α4β2 neuronal nicotinic acetylcholine receptor subtype (P43681 29-627 limits assumed): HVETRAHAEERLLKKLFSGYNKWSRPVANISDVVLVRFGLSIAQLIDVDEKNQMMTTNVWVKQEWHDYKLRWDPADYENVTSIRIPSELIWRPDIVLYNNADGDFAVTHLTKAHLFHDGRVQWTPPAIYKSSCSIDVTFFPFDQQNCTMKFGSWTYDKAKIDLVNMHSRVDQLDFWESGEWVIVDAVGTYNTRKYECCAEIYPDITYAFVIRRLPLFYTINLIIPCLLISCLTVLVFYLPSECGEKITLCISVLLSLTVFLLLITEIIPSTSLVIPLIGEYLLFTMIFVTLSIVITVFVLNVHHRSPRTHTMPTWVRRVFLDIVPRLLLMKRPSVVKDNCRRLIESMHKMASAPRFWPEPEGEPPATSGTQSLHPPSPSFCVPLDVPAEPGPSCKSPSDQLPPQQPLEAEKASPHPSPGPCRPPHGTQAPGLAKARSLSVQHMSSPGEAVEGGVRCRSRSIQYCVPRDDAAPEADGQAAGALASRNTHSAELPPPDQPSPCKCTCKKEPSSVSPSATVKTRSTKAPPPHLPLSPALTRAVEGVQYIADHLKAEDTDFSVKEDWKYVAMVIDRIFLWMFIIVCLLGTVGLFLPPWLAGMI
Sequence of α4β2 neuronal nicotinic acetylcholine receptor subtype (P17787 26-502): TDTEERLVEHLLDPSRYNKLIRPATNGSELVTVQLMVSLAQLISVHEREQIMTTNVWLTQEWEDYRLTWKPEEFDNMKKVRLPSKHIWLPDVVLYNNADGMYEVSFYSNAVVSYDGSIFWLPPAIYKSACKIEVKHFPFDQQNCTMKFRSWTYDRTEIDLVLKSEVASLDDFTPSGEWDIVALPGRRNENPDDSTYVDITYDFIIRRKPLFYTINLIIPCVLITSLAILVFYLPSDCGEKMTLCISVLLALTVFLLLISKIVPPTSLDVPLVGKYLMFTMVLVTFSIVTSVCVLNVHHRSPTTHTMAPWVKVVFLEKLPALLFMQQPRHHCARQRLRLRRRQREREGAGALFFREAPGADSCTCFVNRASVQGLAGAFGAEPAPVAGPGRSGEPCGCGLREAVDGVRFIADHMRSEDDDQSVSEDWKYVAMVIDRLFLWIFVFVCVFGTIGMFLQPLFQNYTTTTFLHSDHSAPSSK

**Q.** Which “Linear OR, treatment suspension due to adverse effects” value (“Linear OR, treatment suspension due” below) ([1]; human, in vivo, 3 months) does the source give for `c1cnc2cc3c(cc2n1)C1CNCC3C1` [varenicline, 7,8,9,10-tetrahydro-6,10-methane-6H-pyrazino[2,3-h][3]benzazepine] here?
**A.** 2.43

**Q.** And the “OR (95% CI), alleles, treatment suspension due to adverse effects” value ([1]; human, in vivo, 3 months)?
**A.** 2.41

**Q.** What about the “OR (95% CI), alleles, treatment suspension due to adverse effects” value ([1]; rs7146 (C19orf6) alleles C, T) of the same compound?
**A.** 1.83

**Q.** And the “OR, treatment suspension due to adverse effects” value ([1]; rs7146 (C19orf6) genotype C/C (reference))?
**A.** 1.00

**Q.** And the “OR, treatment suspension due to adverse effects” value ([1]; rs7146 (C19orf6) genotype C/T)?
**A.** 1.61

**Q.** What about the “OR, treatment suspension due to adverse effects” value ([1]; rs7146 (C19orf6) genotype T/T) of the same compound?
**A.** 4.05

**Q.** And the “Linear OR, treatment suspension due” value ([1]; rs7146 (C19orf6) genotype, linear model)?
**A.** 1.93

**Q.** And the “OR (95% CI), alleles, treatment suspension due to adverse effects” value ([1]; rs477292 (OPRM1) alleles G, A)?
**A.** 1.91

**Q.** What about the “OR, treatment suspension due to adverse effects” value ([1]; rs477292 (OPRM1) genotype A/A) of the same compound?
**A.** 3.54

**Q.** What about the “OR, treatment suspension due to adverse effects” value ([1]; rs477292 (OPRM1) genotype A/G) of the same compound?
**A.** 2.13

**Q.** What about the “OR, treatment suspension due to adverse effects” value ([1]; rs477292 (OPRM1) genotype G/G (reference)) of the same compound?
**A.** 1.00

**Q.** What about the “Linear OR, treatment suspension due” value ([1]; rs477292 (OPRM1) genotype, linear model) of the same compound?
**A.** 1.99

**Q.** What about the “OR (95% CI), alleles, treatment suspension due to adverse effects” value ([1]; rs495491 (OPRM1) alleles T, C) of the same compound?
**A.** 2.08

**Q.** What about the “OR, treatment suspension due to adverse effects” value ([1]; rs495491 (OPRM1) genotype C/C) of the same compound?
**A.** 3.80

**Q.** And the “OR, treatment suspension due to adverse effects” value ([1]; rs495491 (OPRM1) genotype C/T)?
**A.** 2.77

**Q.** And the “OR, treatment suspension due to adverse effects” value ([1]; rs495491 (OPRM1) genotype T/T (reference))?
**A.** 1.00

**Q.** And the “Linear OR, treatment suspension due” value ([1]; rs495491 (OPRM1) genotype, linear model)?
**A.** 2.19

**Q.** What about the “OR (95% CI), alleles, treatment suspension due to adverse effects” value ([1]; rs3778151 (OPRM1) alleles T, C) of the same compound?
**A.** 2.40

**Q.** And the “OR, treatment suspension due to adverse effects” value ([1]; rs3778151 (OPRM1) genotype C/C)?
**A.** 8.48

**Q.** And the “OR, treatment suspension due to adverse effects” value ([1]; rs3778151 (OPRM1) genotype C/T)?
**A.** 2.26

**Q.** What about the “OR, treatment suspension due to adverse effects” value ([1]; rs3778151 (OPRM1) genotype T/T (reference)) of the same compound?
**A.** 1.00

**Q.** What about the “Linear OR, treatment suspension due” value ([1]; rs3778151 (OPRM1) genotype, linear model) of the same compound?
**A.** 2.55

**Q.** What about the “OR (95% CI), alleles, treatment suspension due to adverse effects” value ([1]; rs7930792 (UBASH3B) alleles C, G) of the same compound?
**A.** 0.52

**Q.** And the “OR, treatment suspension due to adverse effects” value ([1]; rs7930792 (UBASH3B) genotype C/C (reference))?
**A.** 1.00

**Q.** And the “OR, treatment suspension due to adverse effects” value ([1]; rs7930792 (UBASH3B) genotype C/G)?
**A.** 0.58

**Q.** What about the “OR, treatment suspension due to adverse effects” value ([1]; rs7930792 (UBASH3B) genotype G/G) of the same compound?
**A.** 0.21

**Q.** What about the “Linear OR, treatment suspension due” value ([1]; rs7930792 (UBASH3B) genotype, linear model) of the same compound?
**A.** 0.52

**Q.** What about the “OR (95% CI), alleles, treatment suspension due to adverse effects” value ([1]; rs9479757 (OPRM1) alleles G, A) of the same compound?
**A.** 3.27

**Q.** What about the “OR, treatment suspension due to adverse effects” value ([1]; rs9479757 (OPRM1) genotype A/A) of the same compound?
**A.** 12.30

**Q.** What about the “OR, treatment suspension due to adverse effects” value ([1]; rs9479757 (OPRM1) genotype A/G) of the same compound?
**A.** 3.46

**Q.** What about the “OR, treatment suspension due to adverse effects” value ([1]; rs9479757 (OPRM1) genotype G/G (reference)) of the same compound?
**A.** 1.00

**Q.** And the “Linear OR, treatment suspension due” value ([1]; rs9479757 (OPRM1) genotype, linear model)?
**A.** 3.47

**Q.** What about the “OR (95% CI), alleles, treatment suspension due to adverse effects” value ([1]; rs12423809 (C12orf36) alleles A, C) of the same compound?
**A.** 1.91

**Q.** What about the “OR, treatment suspension due to adverse effects” value ([1]; rs12423809 (C12orf36) genotype A/A (reference)) of the same compound?
**A.** 1.00

**Q.** And the “OR, treatment suspension due to adverse effects” value ([1]; rs12423809 (C12orf36) genotype A/C)?
**A.** 1.59

**Q.** And the “OR, treatment suspension due to adverse effects” value ([1]; rs12423809 (C12orf36) genotype C/C)?
**A.** 3.53

**Q.** And the “Linear OR, treatment suspension due” value ([1]; rs12423809 (C12orf36) genotype, linear model)?
**A.** 1.87

**Q.** What about the absorption [2] of the same compound?
**A.** complete

**Q.** And the systemic availability [2]?
**A.** high

**Q.** And the “time of maximum plasma concentrations after intake” value [2]?
**A.** 3 to 4 h

**Q.** What about the “OR (95% CI), alleles, dose reduction due to adverse effects” value (“OR (95% CI), alleles, dose reduction due” for short) ([3]; rs763132 (ARHGAP18) alleles T, G) of the same compound?
**A.** 0.43

**Q.** And the “OR, dose reduction due to adverse effects” value ([3]; rs763132 (ARHGAP18) genotype G/G)?
**A.** 0.13

**Q.** And the “OR, dose reduction due to adverse effects” value ([3]; rs763132 (ARHGAP18) genotype G/T)?
**A.** 0.49

**Q.** And the “OR, dose reduction due to adverse effects” value ([3]; rs763132 (ARHGAP18) genotype T/T (reference))?
**A.** 1.00

**Q.** And the “Linear OR, dose reduction due to adverse effects” value (shortened to “Linear OR, dose reduction due”) ([3]; rs763132 (ARHGAP18) genotype)?
**A.** 0.44

**Q.** What about the “OR (95% CI), alleles, dose reduction due” value ([3]; rs1183035 (MAOB) alleles T, C) of the same compound?
**A.** 0.28

**Q.** And the “OR, dose reduction due to adverse effects” value ([3]; rs1183035 (MAOB) genotype C/C)?
**A.** 0.00

**Q.** What about the “OR, dose reduction due to adverse effects” value ([3]; rs1183035 (MAOB) genotype C/T) of the same compound?
**A.** 0.83

**Q.** What about the “OR, dose reduction due to adverse effects” value ([3]; rs1183035 (MAOB) genotype T/T (reference)) of the same compound?
**A.** 1.00

**Q.** And the “Linear OR, dose reduction due” value ([3]; rs1183035 (MAOB) genotype)?
**A.** 0.42

**Q.** And the “OR (95% CI), alleles, dose reduction due” value ([3]; rs4474069 (RAPGEF1) alleles C, T)?
**A.** 1.82

**Q.** What about the “OR, dose reduction due to adverse effects” value ([3]; rs4474069 (RAPGEF1) genotype C/C (reference)) of the same compound?
**A.** 1.00

**Q.** And the “OR, dose reduction due to adverse effects” value ([3]; rs4474069 (RAPGEF1) genotype C/T)?
**A.** 2.68

**Q.** What about the “OR, dose reduction due to adverse effects” value ([3]; rs4474069 (RAPGEF1) genotype T/T) of the same compound?
**A.** 1.33

**Q.** And the “Linear OR, dose reduction due” value ([3]; rs4474069 (RAPGEF1) genotype)?
**A.** 1.87

**Q.** What about the “treatment withdrawal rate due to adverse effects” value [4] of the same compound?
**A.** 12%

**Q.** And the “withdrawal rate due to headache” value [4]?
**A.** 0.6%

**Q.** What about the “withdrawal rate due to insomnia” value [4] of the same compound?
**A.** 1.2%

**Q.** And the “withdrawal rate due to nausea” value [4]?
**A.** 3%

**Q.** What about the “withdrawal rate due to sleep alterations” value [4] of the same compound?
**A.** 0.3%

**Q.** What about the affinity [5] of the same compound?
**A.** high affinity
